Results published in a melting point compilation (Tetko et al.; mined from patent text by program, amines drawn as free bases though some values may be those of a salt).
Residues, ends and D or L forms follow the SMILES beside them. *: point of attachment. NHPhenethyl = c1ccc(CCN*)cc1

Row | melting point [°C] | Compound
1 | 180 to 183 | O=C(O)c1nn(-c2c(Cl)cc(C(F)(F)F)cc2Cl)cc1OC(F)F
2 | 286 | NS(=O)(=O)c1ccc(Cl)c(NC(=O)c2cnn3c(C(F)F)cc(-c4ccc(C(F)(F)F)cc4)nc23)c1
3 | 137 to 139 | O=c1oc(-c2ccc(C(F)(F)F)cc2)nc2cc(F)ccc12
4 | > 260 | Nc1nc(O)c2c(n1)NCC(CCc1cc(C(=O)O)n[nH]1)C2 (centres undefined)
5 | 154 to 156 | Cc1cccc(OCc2cccc(OCc3ccc4ccccc4n3)c2)c1C(=O)O
6 | 154 to 155 | Cc1ccc(N)c(C#Cc2ccccc2)n1
7 | 156 to 158 | CCOC(=O)c1cc(Br)c2ccccn2c1=O
8 | 68 to 72 | COc1ccc(CN(CCN(C)CCCCNC(=O)NCCCOc2cccc(CN3CCCCC3)c2)c2ccccn2)cc1
9 | 118 to 120 | Cc1ccc(Nc2cccc3c2OC(COS(=O)(=O)c2ccc(C)cc2)C3)cc1 (centres undefined)
10 | 118 to 120 | CC(C)C1C(=O)N(CCl)S(=O)(=O)N1C (centres undefined)
11 | 79 to 82 | N#CCCN(CCC#N)c1ccccc1C#N
12 | 181 | CCS(=O)(=O)c1cc(C(=O)NCC2CCCN2CC2CC2)c(OC)cc1N (centres undefined)
13 | 168 to 169 | Cc1ccc(N(C=C(C#N)C#N)N=C(C#N)C#N)cc1
14 | 291 to 292 | Cc1[nH]c2ccccc2c1C=C1SC(=S)N(CC(=O)O)C1=O
15 | 53 to 59 | OC(CCCN1CCN(c2ncc(F)cn2)CC1)(c1ccc(F)cc1)C1CCCCC1 (centres undefined)
16 | 89 to 90 | COc1cc(C)ccc1Oc1ccc(Br)cc1C=O
17 | 214 to 215 | O=C(NCCO)c1cccc(-c2nc(=O)c3ccccc3s2)n1
18 | 155 to 157 | CCCCc1ncc(CSc2ncccc2C(=O)O)n1Cc1ccc(C(=O)O)cc1
19 | 133 | Cc1cc(Cl)nc(C#N)c1
20 | 216 | O=C(O)CCCc1cc2nc(Cl)ccc2n1S(=O)(=O)c1ccc2c(c1)OC(F)(F)O2
21 | 143 to 145 | COCc1nc2c(NCc3c(C)cccc3C)cc(Br)cc2n1C
22 | > 300 | CCC1=C(C#N)C(c2ccccc2Cl)c2c[nH]nc2N1 (centres undefined)
23 | 181 to 183 | CCCOc1ccccc1C(=O)Nc1cnccc1C(N)=O

Row | melting point [°C] | Compound
24 | 111 to 113 | CCOc1ccc(Nc2nc(=O)cc(N)n2-c2ccccc2)cc1
25 | 145 to 146 | O=[N+]([O-])C=C(NCCO)NCCO
26 | 276 to 278 | O=C(C=Cc1ccccc1)NN1CC(=O)NC1=O
27 | 190 to 191 | CC(C)c1cccc(C(C)C)c1NC(=O)CNC(c1ccccc1)c1cccc(C(=O)O)c1 (centres undefined)
28 | 248 to 250 | NC(=O)CCn1c(-c2ccc(Cl)cc2)nc2cccnc21
29 | 118 to 119 | Cc1oc(-c2ccccc2)nc1COc1ccc(Cn2cc(CCCC(=O)O)c(-c3ccccc3)n2)cc1
30 | 82 to 85 | CC(C)(C)OC(=O)COc1cc(NC(=O)OC(C)(C)C)c(NC(=O)CC(=O)c2cccc(-n3ccnc3)c2)cc1-c1ccc(F)cc1
31 | 164 to 165 | CC(=O)Nc1nc(CCc2ccc(CCC(=O)O)s2)cs1
32 | 160 to 163 | CN(CCSc1ccc(NS(C)(=O)=O)cc1)CCc1ccc(NS(C)(=O)=O)cc1
33 | 196 to 198 | CC(C)(C)C(NC(=O)c1ccc(Cl)cc1)NC(=NC#N)Nc1cc(F)ccc1F (centres undefined)
34 | 84 | O=CCC1Cc2ccc(Br)cc2C1=O (racemic)
35 | 275 to 277 | NC(=O)c1[nH]c2ccc(Cl)cc2c1S(=O)(=O)c1ccc(Cl)cc1
36 | 130 to 132 | CC(C(=O)O)c1ccc2c(c1)C(=O)Cc1ccccc1S2 (centres undefined)
37 | 97 to 98 | N#CC1c2ccccc2Oc2ccccc21
38 | 97 to 100 | CCCN1CCC(=O)C2=C1COc1ccc(OC)cc12
39 | 163 to 165 | Cc1cccc(-n2nc(Sc3ccc(Cl)cc3)c(C)c(C#N)c2=O)c1
40 | 137 | Cc1nnc(-c2ccccc2)c2nc(OCc3ncnn3C)c(C3CCCC3)n12
41 | 164 to 165 | CN(c1cccc2cc(C3=NCC(C)(CN)S3)[nH]c12)S(=O)(=O)c1cccs1 (centres undefined)
42 | 156 to 159 | CC[C@H](C)[C@H](NC(=O)[C@@H](N)CS)C(=O)NCCc1ccccc1 (H-Cys-Ile-NHPhenethyl)
43 | 167 to 168 | COC(=O)C1=NC2=COc3c(OC)cccc3N2C1C(=O)O (centres undefined)
44 | 140 to 141 | COc1cc(CO)ccc1OCc1nc(-c2cccc(OS(C)(=O)=O)c2)oc1C
45 | 178 to 181 | O=C(O)c1ccccc1CF
46 | 118 to 123 | C[C@]12CC[C@@H]3C4=C(CC[C@H]3[C@@H]1CCC21CC(O)CO1)CC(=O)CC4 (some centres undefined)

Row | melting point [°C] | Compound
47 | 197 to 198 | C#CCSc1cc(C(=O)O)cc(S(N)(=O)=O)c1Oc1ccccc1
48 | 166 to 167 | Cc1ncccc1NC(=NC#N)NC(NC(=O)Cc1ccc(F)cc1)C(C)(C)C (centres undefined)
49 | 129 to 130 | Cc1c(NC(=O)c2ccc(-c3ccccc3)c(F)c2)ccc2cc(CN3CCCCCC3)cnc12
50 | 128 to 130 | CCOC(=O)C1=CC(=O)CCC1S(=O)(=O)Nc1ccc(F)cc1Cl (centres undefined)
51 | 108 to 109 | C=CCc1cc(C=C2N=C(C)OC2=O)ccc1OC(C)=O
52 | 219 to 220 | C=C1COc2c(N3CCC(NC(=O)OC(C)(C)C)C3)c(F)cc3c(=O)c(C(=O)O)cn1c23 (centres undefined)
53 | 86 to 88 | CN(C)C(=O)c1c2ccc(Cl)cc2c(-c2ccccc2)n1C
54 | 136 to 137 | CCOC(=O)Nc1cc(F)cc(CCCCC(=O)O)c1
55 | 65 to 66 | CC(=O)OC1CCCC2=CCC3C4CCC(C(C)CCCC(C)C)C4(C)CCC3C21C (centres undefined)
56 | 66 to 67 | CCCC[C@H](NC(=O)[C@H](CC(C)C)NC(=O)COc1ccc(Cl)cc1)C(=O)CSCc1ccco1
57 | 173 to 174 | CN(C)CCNC(=O)Cc1ccc(NC(=O)CCc2nc(-c3ccc4ccccc4c3)no2)cc1
58 | 83 to 85 | CC(C)(C)COC1CCC(=O)N1C(=O)c1ccccc1 (centres undefined)
59 | 68 to 71 | CCCCNC(=S)c1cccc(NC(=O)N(C)C)c1
60 | 168 to 170 | CCC(=CC(CNC(=O)c1cnc2ccccc2c1)=NO)C(C)[N+](=O)[O-] (centres undefined)
61 | > 250 | O=C(O)c1cn([C@@H]2C[C@@H]2F)c2cc(N3C[C@@H]4NCCO[C@H]4C3)c(F)cc2c1=O
62 | 142 to 143 | CCCN(CCC)C(=O)CNc1nc(-c2ccccc2)ncc1[N+](=O)[O-]
63 | 74 | CCCCc1cc(OCc2ccc(C#N)cc2)c2ccccc2n1
64 | 110 to 111 | CC(=O)c1ccc(OCCCC(=O)O)cc1F
65 | 124 to 125 | COc1coc2ccc(OCCCCCCN3CCC(O)CC3)cc2c1=O
66 | 137 to 139 | COc1ccc(NC(=N)c2cccnc2)cc1
67 | 150 to 151 | COc1ccc(C2N3CCSC3=NC2(O)c2ccc(F)cc2)cc1 (centres undefined)
68 | 113 to 115 | COc1nc(N)nc2c1ncn2C1OC(CO)C(OC(=O)C(C)(C)C)C1O (centres undefined)
69 | 142 | CCCCC(N)S(=O)(=O)O (centres undefined)

Row | melting point [°C] | Compound
70 | 222 to 224 | CCOC(=O)C=c1sc2n(c1=O)Cc1ccccc1N=2
71 | 180 to 183 | COc1ccc(C(=O)Nc2ccc(F)c(F)c2)cc1NC(=S)Nc1cc(Cl)cc(Cl)c1
72 | 149 to 151 | O=[N+]([O-])c1ccc2oc(-c3ccc(CN4CCOCC4)s3)nc2c1
73 | 138 to 140 | COc1cc(C(=O)COC(C)=O)ccc1OCCCN1CCC(C(O)(c2ccc(F)cc2)c2ccc(F)cc2)CC1
74 | 172 to 174 | C=CCc1cc(C(C)=O)c(NC(C)=O)cc1O
75 | 171 to 176 | O=CC(O)C(O)C(CO)OC1OC(CO)C(O)C(O)C1O (centres undefined)
76 | 196 | N#Cc1c(CNS(=O)(=O)c2c(F)cccc2F)nn(-c2ccc(Cl)cc2Cl)c1-c1ccc(O)cc1
77 | 159 to 163 | Cc1c(NC(=O)c2ccc(OC[C@@H]3CCCO3)cc2)ccc2cc(CNC3CCCC3)[nH]c12
78 | 192 to 195 | Cc1nc(Oc2ccc(Cl)cc2)c2ccccc2c1CC(=O)O
79 | 76.5 to 77.5 | Cc1cccc(C(O)c2ocnc2C)c1 (centres undefined)
80 | 123 to 125 | CCCCC12CCC3c4ccc(OC)cc4CCC3C1CCC2O (centres undefined)
81 | 71 to 71.5 | CCOC(=O)C=Cc1cccc(C(=O)c2ccc(OC)cc2)c1
82 | 115 to 118 | CC(CC#N)C(C#N)(c1cccc(C(F)(F)F)c1)N1CCOCC1 (centres undefined)
83 | 98 to 100 | COC(=O)c1cccc(/C=C/c2cc3ccccc3o2)c1
84 | 93 to 95 | CN1C=NN(c2cccc(N)c2)N1
85 | 88 to 91 | CCCCOC(=O)C(NC(=O)c1cc([N+](=O)[O-])cc([N+](=O)[O-])c1)C(C)C (centres undefined)
86 | 160 to 163 | O=C1[C@H]2CCC[C@H]2Nc2ccc(Cl)cc2N1Cc1ccccc1 (relative stereo)
87 | 204 | NC(=O)N/N=C(/C(=O)O)c1ccc(OCCOc2ccc3ccccc3c2)cc1
88 | 123 to 125 | CC(C)(C)C(=O)OCCN1CCN(c2nc(N)ncc2Oc2ccc(Cl)cc2)CC1
89 | 277 to 278 | COc1cc(C(=O)NS(C)(=O)=O)cc(OC)c1-c1ccc(C[C@H](NC(=O)c2c(Cl)cccc2Cl)C(=O)O)cc1
90 | 111 to 115 | CCCc1ccc(C(=O)OCC)n1Cc1ccc(-c2ccccc2C(=O)O)cc1
91 | 227 | COC(=O)CCCOc1cc(C(=O)O)ccc1NC(=O)NC(=O)c1cc(F)c(F)cc1Cl
92 | 158 to 160 | Cc1cc(-c2cccc(C(=O)CC(=O)Nc3cc(-c4ccccc4F)ccc3NC(=O)OC(C)(C)C)c2)on1

Row | Compound | melting point [°C]
93 | CC(Cl)(Cl)C(NC(=O)c1ccc(Cl)cc1)NC(=N[N+](=O)[O-])Nc1cccnc1 (centres undefined) | 170 to 172
94 | Cc1nc(C=O)c2n1-c1ccc(Cl)cc1C(c1ccccc1F)=NC2 | 190 to 192
95 | NS(=O)(=O)c1ncccc1OCCF | 122 to 123
96 | CC1(O)C=CC2C3CCC4=CC(=O)CCC4C3C(c3ccc(-c4cccnc4)cc3)CC21C (centres undefined) | 159
97 | CCOC(=O)Nc1nc(C)c(-c2nc3ccccc3c(=O)n2-c2ccccc2Cl)s1 | 246 to 247
98 | CCN(CC)C(=O)NC1CC2c3cccc4[nH]c(C#Cc5cccs5)c(c34)CC2N(C)C1 (centres undefined) | 252 to 256
99 | COC1CCC2C3C(C)CC4=CC(=O)C(C)CC4(C)C3CCC12C (centres undefined) | 123 to 126
